# In patent US9174995B2, “Pyrrolotriazinone derivatives” (Merck Patent GmbH, priority 2012, dated 2015):
# Biological target: T1, GST-tagged Tankyrase-1 (1023-1327 aa) (Homo sapiens, UniProt O95271)
# T1 construct: GST-tagged Tankyrase-1 (1023-1327 aa)
# Assay: Tankyrase 1 autoparsylation assay (HTRF enzyme assay)
# Format: biochemical
# Details: not given
# Method: Biochemical Activity Testing of Tankyrase 1 and 2: Autoparsylation Assay
# The autoparsylation assay is run in two steps: the enzymatic reaction in which GST-tagged Tankyrase-1, resp Tankyrase-2 transferred biotinylated ADP-ribose to itself from biotinylated NAD as co-substrate and the detection reaction where a time resolved FRET between cryptate labelled anti-GST bound to the GST tag of the enzyme and Xlent® labelled-streptavidin bound the biotin-parsylation residue is analysed. The autoparsylation activity was detectable directly via the increase in HTRF signal.
# The autoparsylation assay is performed as 384-well HTRF® (Cisbio, Codolet, France) assay format in Greiner low volume nb 384-well microtiter plates and is used for high throughput screen. 250 nM GST-tagged Tankyrase-1 (1023-1327 aa), respectively about 250 nM GST-tagged Tankyrase-2 (873-1166 aa) and 5 μM bio-NAD (Biolog, Life science Inst., Bremen, Germany) as co-substrate are incubated in a total volume of 5 μl (50 mM HEPES, 4 mM Mg-chloride, 0.05% Pluronic F-68, 1.4 mM DTT, 0.5% DMSO, pH 7.7) in the absence or presence of the test compound (10 dilution concentrations) for 90 min at 30° C. The reaction is stopped by the addition of 1 μl 50 mM EDTA solution. 2 μl of the detection solution (1.6 μM SA-Xlent® (Cisbio, Codolet, France), 7.4 nM Anti-GST-K® (Eu-labelled anti-GST, Cisbio, Codolet, France) in 50 mM HEPES, 800 mM KF, 0.1% BSA, 20 mM EDTA, 0.1% CHAPS, pH 7.0) are added. After 1 h incubation at room temperature the HTRF is measured with an Envision multimode reader (Perkin Elmer LAS Germany GmbH) at excitation wavelength 340 nm (laser mode) and emission wavelengths 615 nm and 665 nm. The ratio of the emission signals is determined. The full value used is the inhibitor-free reaction. The pharmacological zero value used is XAV-939 (Tocris) in a final concentration of 5 μM. The inhibitory values (IC50) are determined using either the program Symyx Assay Explorer® or Condosseo® from GeneData.
# T1 sequence (O95271 1023-1327): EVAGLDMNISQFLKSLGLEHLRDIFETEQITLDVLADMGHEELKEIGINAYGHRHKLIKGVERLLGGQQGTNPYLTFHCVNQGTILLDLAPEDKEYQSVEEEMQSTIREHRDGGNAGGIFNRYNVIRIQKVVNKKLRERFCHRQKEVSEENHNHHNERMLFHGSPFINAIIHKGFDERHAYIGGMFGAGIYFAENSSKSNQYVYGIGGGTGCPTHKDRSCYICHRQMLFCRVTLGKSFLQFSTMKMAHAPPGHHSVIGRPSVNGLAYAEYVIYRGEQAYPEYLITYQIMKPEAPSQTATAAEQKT
row,SMILES,IC50 [nM]
1,"CCC(O)(CC)c1ccc(-c2nn3cccc3c(=O)[nH]2)cc1 [Compound A14, 2-[4-(1-ethyl-1-hydroxy-propyl)-phenyl]-3H-pyrrolo[2,1-f][1,2,4]triazin-4-one]",< 300
2,"Cc1cc2c(=O)[nH]c(-c3ccc(-c4cnn(C)c4)cc3)nn2c1 [Compound A13, 6-methyl-2-[4-(1-methylpyrazol-4-yl)phenyl]-3H-pyrrolo-[2,1-f][1,2,4]triazin-4-one]",< 300
3,"CC(C)(O)c1ccc(-c2nn3cccc3c(=O)[nH]2)cc1 [Compound A5, 2-[4-(1-hydroxy-1-methyl-ethyl)-phenyl]-3H-pyrrolo[2,1-f][1,2,4]triazin-4-one]",< 300
4,"CC(C)(O)c1ccc(-c2nn3cc(Cl)cc3c(=O)[nH]2)cc1 [Compound A18, 6-chloro-2-[4-(1-hydroxy-1-methyl-ethyl)-phenyl]-3H-pyrrolo[2,1-f][1,2,4]triazin-4-one]",< 300
5,"Cn1cc(-c2ccc(-c3nn4cccc4c(=O)[nH]3)cc2)cn1 [Compound A7, 2-[4-(1-methyl-1H-pyrazol-4-yl)-phenyl]-3H-pyrrolo[2,1-f][1,2,4]triazin-4-one]",< 300
6,"CC(C)(OCCO)c1ccc(-c2nn3cccc3c(=O)[nH]2)cc1 [Compound A15, 2-{4-[1-(2-hydroxy-ethoxy)-1-methyl-ethyl]-phenyl}-3H-pyrrolo[2,1-f][1,2,4]triazin-4-one]",< 300
7,"O=c1[nH]c(-c2ccc(C3(O)CCCC3)cc2)nn2cccc12 [Compound A21, 2-[4-(1-hydroxy-cyclopentyl)-phenyl]-3H-pyrrolo[2,1-f][1,2,4]-triazin-4-one]",< 300
8,"Cc1cc2c(=O)[nH]c(-c3ccc(C(C)(C)O)cc3)nn2c1 [Compound A11, 2-[4-(1-hydroxy-1-methyl-ethyl)phenyl]-6-methyl-3H-pyrrolo[2,1-f][1,2,4]triazin-4-one]",< 300
9,"CC(C)(O)c1ccc(-c2nn3cc(F)cc3c(=O)[nH]2)cc1 [Compound A12, 6-fluoro-2-[4-(1-hydroxy-1-methyl-ethyl)phenyl]-3H-pyrrolo[2,1-f][1,2,4]triazin-4-one]",< 300

# System: Tankyrases
# Assay: Cellular inhibition of Tankyrase: increase of Axin2 level in DLD1 cells (Luminex)
# Format: cell-based
# Details: 24 hours, read-out: EC50 tankyrase ½ (cell assay)
# Method: Measurement of Cellular Inhibition of Tankyrase
# Since Tankyrases have been described to modulate cellular level of Axin2 (Huang et al., 2009; Nature) the increase of Axin2 level is used as readout for determination of cellular inhibition of Tankyrases in a Luminex based assay.
# Cells of the colon carcinoma cell line DLD1 are plated in 96 well plates with 1.5×10^4 cells per well. Next day, cells are treated with a serial dilution of test compound in seven steps as triplicates with a final DMSO concentration of 0.3%. After 24 hours, cells are lysed in lysis buffer (20 mM Tris/HCl pH 8.0, 150 mM NaCl, 1% NP40, 10% Glycerol) and lysates are cleared by centrifugation through a 96 well filter plate (0.65 μm). Axin2 protein is isolated from cell lysates by incubation with a monoclonal anti-Axin2 antibody (R&D Systems #MAB6078) that is bound to fluorescent carboxybeads. Then, bound Axin2 is specifically detected with a polyclonal anti-Axin2 antibody (Cell Signaling #2151) and an appropriate PE-fluorescent secondary antibody. The amount of isolated Axin2 protein is determined in a Luminex^200 machine (Luminex Corporation) according to the manufacturer's instruction by counting 100 events per well. Inhibition of Tankyrase by test compounds results in higher levels of Axin2 which directly correlates with an increase of detectable fluorescence. As controls cells are treated with solvent alone (neutral control) and with a Tankyrase reference inhibitor IWR-2 (3E-06 M) which refers as control for maximum increase of Axin2. For analysis, the obtained data are normalized against the untreated solvent control and fitted for determination of the EC50 values using the Assay Explorer software (Accelrys).
row,SMILES,EC50 [nM]
1,"CCC(O)(CC)c1ccc(-c2nn3cccc3c(=O)[nH]2)cc1 [Compound A14, 2-[4-(1-ethyl-1-hydroxy-propyl)-phenyl]-3H-pyrrolo[2,1-f][1,2,4]triazin-4-one]",< 300
2,"Cc1cc2c(=O)[nH]c(-c3ccc(-c4cnn(C)c4)cc3)nn2c1 [Compound A13, 6-methyl-2-[4-(1-methylpyrazol-4-yl)phenyl]-3H-pyrrolo-[2,1-f][1,2,4]triazin-4-one]",300 to 3000
3,"CC(C)(O)c1ccc(-c2nn3cccc3c(=O)[nH]2)cc1 [Compound A5, 2-[4-(1-hydroxy-1-methyl-ethyl)-phenyl]-3H-pyrrolo[2,1-f][1,2,4]triazin-4-one]",300 to 3000
4,"CC(C)(O)c1ccc(-c2nn3cc(Cl)cc3c(=O)[nH]2)cc1 [Compound A18, 6-chloro-2-[4-(1-hydroxy-1-methyl-ethyl)-phenyl]-3H-pyrrolo[2,1-f][1,2,4]triazin-4-one]",300 to 3000
5,"Cn1cc(-c2ccc(-c3nn4cccc4c(=O)[nH]3)cc2)cn1 [Compound A7, 2-[4-(1-methyl-1H-pyrazol-4-yl)-phenyl]-3H-pyrrolo[2,1-f][1,2,4]triazin-4-one]",300 to 3000
6,"CC(C)(OCCO)c1ccc(-c2nn3cccc3c(=O)[nH]2)cc1 [Compound A15, 2-{4-[1-(2-hydroxy-ethoxy)-1-methyl-ethyl]-phenyl}-3H-pyrrolo[2,1-f][1,2,4]triazin-4-one]",300 to 3000
7,"O=c1[nH]c(-c2ccc(C3(O)CCCC3)cc2)nn2cccc12 [Compound A21, 2-[4-(1-hydroxy-cyclopentyl)-phenyl]-3H-pyrrolo[2,1-f][1,2,4]-triazin-4-one]",300 to 3000
8,"Cc1cc2c(=O)[nH]c(-c3ccc(C(C)(C)O)cc3)nn2c1 [Compound A11, 2-[4-(1-hydroxy-1-methyl-ethyl)phenyl]-6-methyl-3H-pyrrolo[2,1-f][1,2,4]triazin-4-one]",300 to 3000
9,"CC(C)(O)c1ccc(-c2nn3cc(F)cc3c(=O)[nH]2)cc1 [Compound A12, 6-fluoro-2-[4-(1-hydroxy-1-methyl-ethyl)phenyl]-3H-pyrrolo[2,1-f][1,2,4]triazin-4-one]",300 to 3000

# Biological target: T2, GST-tagged Tnks-2 (873-1166 aa) (Homo sapiens, UniProt Q9H2K2)
# T2 construct: GST-tagged Tnks-2 (873-1166 aa, prepared in-house); made in house
# T2 sequence (Q9H2K2 873-1166): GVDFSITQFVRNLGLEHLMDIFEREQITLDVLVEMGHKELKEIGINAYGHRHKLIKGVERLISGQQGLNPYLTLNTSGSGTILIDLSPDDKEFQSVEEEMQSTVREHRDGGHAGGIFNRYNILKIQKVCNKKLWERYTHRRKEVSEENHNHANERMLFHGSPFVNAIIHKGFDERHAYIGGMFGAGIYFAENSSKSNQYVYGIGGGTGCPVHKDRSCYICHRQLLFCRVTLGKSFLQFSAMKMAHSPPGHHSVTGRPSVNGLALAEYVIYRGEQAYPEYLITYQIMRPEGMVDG
# Assay: TNKS2 activity ELISA (autoparsylation assay)
# Format: biochemical
# Details: not given
# Method: Description of the TNKS1 and TNKS2 ELISA Assay
# Biochemical Activity Testing of TNKS 1 and 2: Activity ELISA (Autoparsylation Assay)
# For analysis of autoparsylation activity of TNKS 1 and 2 an activity ELISA is performed: In the first step GST tagged TNKS is captured on a Glutathione coated plate. Then the activity assay with biotinylated NAD is performed in the absence/presence of the compounds. During the enzymatic reaction GST tagged TNKS transfers biotinylated ADP-ribose to itself from biotinylated NAD as co-substrate. For the detection streptavidin-HRP conjugate is added that binds to the biotinylated TNKS and is thereby captured to the plates. The amount of biotinylated resp. autoparsylated TNKS is detected with a luminescence substrate for HRP. The level of the luminescence signal correlats directly with the amount of autoparsylated TNKS and therefore with activity of TNKS.
# The activity ELISA is performed in 384 well Glutathione coated microtiter plates (Express capture Glutathione coated plate, Biocat, Heidelberg, Germany). The plates are pre-equilibrated with PBS. Then the plates are incubated with 50 μl 20 ng/well GST-tagged Tnks-1 (1023-1327 aa, prepared in-house), respectively GST-tagged Tnks-2 (873-1166 aa, prepared in-house) in assay buffer (50 mM HEPES, 4 mM Mg-chloride, 0.05% Pluronic F-68, 2 mM DTT, pH 7.7) overnight at 4° C. The plates are washed 3 times with PBS-Tween-20. The wells are blocked by incubation at room temperature for 20 minutes with 50 μl blocking buffer (PBS, 0.05% Tween-20, 0.5% BSA). Afterwards the plates are washed 3 times with PBS-Tween-20. The enzymatic reaction is performed in 50 μl reaction solution (50 mM HEPES, 4 mM Mg-chloride, 0.05% Pluronic F-68, 1.4 mM DTT, 0.5% DMSO, pH 7.7) with 10 μM bio-NAD (Biolog, Life science Inst., Bremen, Germany) as co-substrate in the absence or presence of the test compound (10 dilution concentrations) for 1 hour at 30° C. The reaction is stopped by 3 times washing with PBS-Tween-20. For the detection 50 μl of 20 ng/μl Streptavidin, HRP conjugate (MoBiTec, Göttingen, Germany) in PBS/0.05%Tween-20/0.01%BSA are added and the plates are incubated for 30 minutes at room temperature. After three times washing with PBS-Tween-20 50 μl of SuperSignal ELISA Femto Maximum sensitivity substrate solution (ThermoFisherScientific (Pierce), Bonn, Germany) are added. Following a 1 minute incubation at room temperature luminescence signals are measured with an Envision multimode reader (Perkin Elmer LAS Germany GmbH) at 700 nm. The full value used is the inhibitor-free reaction. The pharmacological zero value used is XAV-939 (Tocris) in a final concentration of 5 μM. The inhibitory values (IC50) are determined using either the program Symyx Assay Explorer® or Condosseo® from GeneData.
row,SMILES,IC50 [nM]
1,"CCC(O)(CC)c1ccc(-c2nn3cccc3c(=O)[nH]2)cc1 [Compound A14, 2-[4-(1-ethyl-1-hydroxy-propyl)-phenyl]-3H-pyrrolo[2,1-f][1,2,4]triazin-4-one]",< 300
2,"Cc1cc2c(=O)[nH]c(-c3ccc(-c4cnn(C)c4)cc3)nn2c1 [Compound A13, 6-methyl-2-[4-(1-methylpyrazol-4-yl)phenyl]-3H-pyrrolo-[2,1-f][1,2,4]triazin-4-one]",< 300
3,"CC(C)(O)c1ccc(-c2nn3cccc3c(=O)[nH]2)cc1 [Compound A5, 2-[4-(1-hydroxy-1-methyl-ethyl)-phenyl]-3H-pyrrolo[2,1-f][1,2,4]triazin-4-one]",< 300
4,"CC(C)(O)c1ccc(-c2nn3cc(Cl)cc3c(=O)[nH]2)cc1 [Compound A18, 6-chloro-2-[4-(1-hydroxy-1-methyl-ethyl)-phenyl]-3H-pyrrolo[2,1-f][1,2,4]triazin-4-one]",< 300
5,"Cn1cc(-c2ccc(-c3nn4cccc4c(=O)[nH]3)cc2)cn1 [Compound A7, 2-[4-(1-methyl-1H-pyrazol-4-yl)-phenyl]-3H-pyrrolo[2,1-f][1,2,4]triazin-4-one]",< 300
6,"CC(C)(OCCO)c1ccc(-c2nn3cccc3c(=O)[nH]2)cc1 [Compound A15, 2-{4-[1-(2-hydroxy-ethoxy)-1-methyl-ethyl]-phenyl}-3H-pyrrolo[2,1-f][1,2,4]triazin-4-one]",< 300
7,"O=c1[nH]c(-c2ccc(C3(O)CCCC3)cc2)nn2cccc12 [Compound A21, 2-[4-(1-hydroxy-cyclopentyl)-phenyl]-3H-pyrrolo[2,1-f][1,2,4]-triazin-4-one]",< 300
8,"Cc1cc2c(=O)[nH]c(-c3ccc(C(C)(C)O)cc3)nn2c1 [Compound A11, 2-[4-(1-hydroxy-1-methyl-ethyl)phenyl]-6-methyl-3H-pyrrolo[2,1-f][1,2,4]triazin-4-one]",< 300
9,"CC(C)(O)c1ccc(-c2nn3cc(F)cc3c(=O)[nH]2)cc1 [Compound A12, 6-fluoro-2-[4-(1-hydroxy-1-methyl-ethyl)phenyl]-3H-pyrrolo[2,1-f][1,2,4]triazin-4-one]",< 300
